Measurements reported in PMC5986797, “Laminin heparin-binding peptides bind to several growth factors and enhance diabetic wound healing” (Nature Communications, 2018).

Tested on: full-thickness back-skin wounds in db/db mice
Assay: Retention of VEGF-A165 at the wound site
Assay type: in vivo, mouse
Conditions: 3 days after treatment, fibrin matrix with 200 ng/wound VEGF-A165 and 2 µM peptide vs without peptide, ELISA
Procedure: Ten C57BLKS/J-m/Lepr db (db/db) mice (The Jackson laboratory) aged 10–11 weeks were used. Their backs were shaved and four full-thickness punch-biopsy wounds (6 mm in diameter) were created in each mouse. Directly after, fibrin matrices [80 µL in total, fibrinogen (10 mg/mL), 2 U/mL human thrombin, 4 U/mL factor XIII, 5 mM calcium chloride, 2 µM α2PI1–8-LAMA3_3043–3067, and 200 ng of recombinant human VEGF-A165] were polymerized on the wounds. To avoid drying of the matrices, the wounds were covered with non-adhering dressing (Adaptic, Johnson&Johnson), and then with adhesive film dressing (Hydrofilm, Hartmann). After 3 or 6 days, mice were sacrificed. The wounds were punched again, in order to recover the fibrinous matrices. Moreover, the tissue surrounding the wounds (2 mm beyond the wound margin) was removed. The tissue was transferred in 0.9 mL of tissue T-PER Tissue Protein Extraction Reagent (Thermo Scientific) containing 1 mg/mL of collagenase IV (Sigma-Aldrich), and homogenized with a tissue homogenizer. […] Recombinant human VEGF-A165 remaining in the fibrinous matrix and in the tissue surrounding the wound was quantified by ELISA (DuoSet, R&D Systems), using 200 ng of recombinant human VEGF-A165 as 100%. […]

- amount of VEGF-A165 remaining in the wounds: significantly enhanced
Sequence: NQEQVSPLRLVFALGTDGKKLRIKSKEKCNDGK [α2PI1–8-LAMA3_3043–3067]
